# Laboratory results taken from patent publication US7825126B2 (The United States of America as represented by the …, priority 2004, dated 2010).
# Values joined by “and” are separate entries in the source; they are usually repeats but may differ in a detail not shown here. Equal values may be shown once. Read-outs that look alike come from different tables or passages of the source.
# How the values were obtained:
# [1] = molecular target: T1, human A2B adenosine receptor (hA2BAR) (Homo sapiens, UniProt P29275); experiment: Activation of human A2B adenosine receptor at 10 μM; assay type: cell-based; conditions: CHO cells
# T1 sequence (P29275 1-332): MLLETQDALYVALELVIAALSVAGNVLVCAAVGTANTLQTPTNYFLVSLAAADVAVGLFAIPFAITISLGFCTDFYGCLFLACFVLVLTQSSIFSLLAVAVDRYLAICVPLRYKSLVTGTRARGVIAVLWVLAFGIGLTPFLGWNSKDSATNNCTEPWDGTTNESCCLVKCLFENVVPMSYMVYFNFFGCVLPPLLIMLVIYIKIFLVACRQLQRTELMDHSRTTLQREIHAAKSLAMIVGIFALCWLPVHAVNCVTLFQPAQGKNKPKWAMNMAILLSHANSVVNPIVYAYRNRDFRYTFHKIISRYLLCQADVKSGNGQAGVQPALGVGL
# [2] = molecular target: T2, human A3 adenosine receptor (Homo sapiens, UniProt P0DMS8); experiment: Binding at human A3 adenosine receptor ([125I]I-AB-MECA, CHO cell membranes); parameters: expressed in transfected cells; host or cells: CHO cells; conditions: for Ki: [125I]I-AB-MECA, mean ± s.e.m., n = 3-5, read-out: Ki(hA3AR)
# T2 sequence (P0DMS8 1-318): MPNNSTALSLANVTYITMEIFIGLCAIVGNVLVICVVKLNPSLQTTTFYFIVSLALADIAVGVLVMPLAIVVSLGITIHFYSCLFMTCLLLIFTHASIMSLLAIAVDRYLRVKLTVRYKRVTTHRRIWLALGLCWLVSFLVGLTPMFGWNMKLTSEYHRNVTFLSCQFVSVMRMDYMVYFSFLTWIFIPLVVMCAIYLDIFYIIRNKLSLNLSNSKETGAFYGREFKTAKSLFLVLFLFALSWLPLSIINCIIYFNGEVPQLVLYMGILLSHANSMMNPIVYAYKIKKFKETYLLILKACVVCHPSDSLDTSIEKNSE
# Description: (§1) Striatal and forebrain tissues from Wistar rats were homogenized in ice-cold 50 mM Tris-HCl buffer, pH 7.4, using an electric homogenizer. The homogenate was centrifuged at 20,000 g for 10 min at 4° C., and the pellet was washed in fresh buffer. The final pellet was stored at −80° C. until the binding experiments. The protein concentration was measured using the Bradford assay. […] The mixtures were incubated at 37° C. for 60 min. […] Filters were washed three times with 9 ml ice-cold buffer. Radioactivity was determined in a Beckman 5500B γ-counter. Statistical analysis Binding and functional parameters were calculated using Prism 5.0 software (GraphPAD, San Diego, Calif., USA). IC50 values obtained from competition curves were converted to Ki values using the Cheng-Prusoff equation.
# [3] = molecular target: T3, human A2A receptors (Homo sapiens, UniProt P29274); experiment: Binding at human A2A adenosine receptor ([3H]CGS21680, HEK-293 cell membranes); conditions: [3H]CGS 21680; mean ± s.e.m., n = 3-5; read-out: Ki(hA2AAR)
# T3 construct: expressed in transfected cells
# T3 sequence (P29274 whole entry): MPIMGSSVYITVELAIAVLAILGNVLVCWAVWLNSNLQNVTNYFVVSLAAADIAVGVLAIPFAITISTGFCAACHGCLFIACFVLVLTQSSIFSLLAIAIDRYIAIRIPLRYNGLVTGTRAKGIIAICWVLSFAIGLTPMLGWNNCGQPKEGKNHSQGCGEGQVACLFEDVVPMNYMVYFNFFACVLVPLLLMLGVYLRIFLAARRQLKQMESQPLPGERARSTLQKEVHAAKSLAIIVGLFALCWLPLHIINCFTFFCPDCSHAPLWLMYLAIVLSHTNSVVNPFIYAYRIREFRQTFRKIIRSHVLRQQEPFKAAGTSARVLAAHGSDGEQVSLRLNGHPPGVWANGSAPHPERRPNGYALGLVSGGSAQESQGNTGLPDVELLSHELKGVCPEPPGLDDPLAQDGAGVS
# Description: (§2) Binding assays at the A1 and A2A receptors. […] Reaction was terminated by filtration with GF/B filters.
# (§3) Statistical analysis Binding and functional parameters were calculated using Prism 5.0 software (GraphPAD, San Diego, Calif., USA). IC50 values obtained from competition curves were converted to Ki values using the Cheng-Prusoff equation.
# [4] = molecular target: T4, rat A3 adenosine receptor (Rattus norvegicus, UniProt P28647); experiment: Binding at rat A3 adenosine receptor ([125I]I-AB-MECA, CHO cell membranes); conditions: rat A3 AR in CHO cells; unit nM printed in b194 only; read-out: Ki(rA3AR)
# T4 construct: expressed in transfected cells; host or cells: CHO cells
# T4 sequence (P28647 1-320): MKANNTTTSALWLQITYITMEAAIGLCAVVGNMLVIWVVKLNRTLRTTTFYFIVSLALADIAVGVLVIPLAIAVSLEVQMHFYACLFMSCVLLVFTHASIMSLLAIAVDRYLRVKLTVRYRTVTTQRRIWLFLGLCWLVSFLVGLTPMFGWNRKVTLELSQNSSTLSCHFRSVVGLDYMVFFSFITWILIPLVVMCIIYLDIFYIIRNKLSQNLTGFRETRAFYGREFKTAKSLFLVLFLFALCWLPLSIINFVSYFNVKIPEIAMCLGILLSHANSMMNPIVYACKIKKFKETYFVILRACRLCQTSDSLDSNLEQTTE
# Description: as §1
# [5] = molecular target: T5, human A1 receptors (Homo sapiens, UniProt P30542); experiment: Binding at human A1 adenosine receptor ([3H]R-PIA, CHO cell membranes); conditions: mean ± s.e.m., n = 3-5, read-out: Ki(hA1AR)
# T5 construct: expressed in transfected cells
# T5 sequence (P30542 1-326): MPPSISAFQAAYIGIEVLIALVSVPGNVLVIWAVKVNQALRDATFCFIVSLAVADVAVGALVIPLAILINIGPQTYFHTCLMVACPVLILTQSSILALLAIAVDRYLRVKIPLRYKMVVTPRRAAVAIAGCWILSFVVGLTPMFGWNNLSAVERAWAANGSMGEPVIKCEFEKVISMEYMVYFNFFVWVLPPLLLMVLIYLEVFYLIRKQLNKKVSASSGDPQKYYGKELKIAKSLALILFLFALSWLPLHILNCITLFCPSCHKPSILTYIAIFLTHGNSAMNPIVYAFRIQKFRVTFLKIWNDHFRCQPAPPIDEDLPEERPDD
# Description: as §2, §3
# [6] = molecular target: T2, human A3 adenosine receptor
# Description: (§4) The cyclic AMP accumulation assay was performed as follows. Intracellular cyclic AMP levels were measured with a competitive protein binding method. […] After centrifugation and resuspension in medium, cells were plated in 24-well plates in 1.0 ml medium. […] The reaction was terminated by removing the supernatant, and cells were lysed upon the addition of 200 μL of 0.1 M ice-cold HCl. The cell lysate was resuspended and stored at −20° C. For determination of cyclic AMP production, protein kinase A (PKA) was incubated with [^3H]cyclic AMP (2 nM) in K2HPO4/EDTA buffer (K2HPO4, 150 mM; EDTA, 10 mM), 20 μL of the cell lysate, and 30 μL 0.1 M HCl or 50 μL of cyclic AMP solution (0-16 pmol/200 μL for standard curve). Bound radioactivity was separated by rapid filtration through Whatman GF/C filters and washed once with cold buffer. Bound radioactivity was measured by liquid scintillation spectrometry.
# (§5) Forskolin (10 μM) was used to stimulate cyclic AMP levels.
# [7] = molecular target: T2, human A3 adenosine receptor; experiment: Cyclic AMP accumulation assay (inhibition of forskolin-stimulated cAMP), CHO cells expressing human A3 adenosine receptor
# Description: as §4, §5
# [8] = tested on: intact mouse heart; experiment: Anti-ischemic cardioprotection, Langendorff-perfused mouse heart model of global ischemia/reperfusion; assay type: in vivo; conditions: 30 nM
# Description: Anti-ischemic Cardioprotection. Langendorff perfusion of the mouse hearts was carried out. Mice were anesthetized with 60 mg/kg sodium pentobarbital (i.p.), and heart excised in ice-cold perfusion buffer. The aorta was cannulated and retrograde perfused in the Langendorff mode at a pressure of 55 mmHg. To assess isovolumic function, fluid-filled polyvinyl plastic film balloons were inserted into the left ventricle via the left atrium. Balloons were connected to a fluid-filled pressure transducer to measure the left ventricular developed pressure (LVDP), +dP/dt, −dP/dt, and heart rate. To induce normothermic global ischemia and reperfusion, retrograde perfusion of the aorta was stopped, and hearts were immersed in the same perfusion buffer in a water-jacketed bath maintained at 37° C. After 35-min ischemia and 30-min reperfusion, the recovery of left ventricular function was determined by quantifying the LVDP, +dP/dt, and −dP/dt. To quantify the infarct, the hearts were retrograde perfused with 1% triphenyltetrazolium chloride (TTC) in perfusion buffer for 10 minutes after 120-min reperfusion, which allowed washout of pyridine nucleotides from necrotic cells as required for TTC staining. The heart was then immersed in the same TTC buffer for another 10 minutes. The hearts were frozen, cut into six or seven 1 mm slices from apex to base, and scanned for measurement of infarct size by computer morphometry (Image-Pro Plus, version 5.0, Media Cybernetics, Inc, Silver Spring, Md.). The infarct size was quantified as the area of necrosis normalized to the total ventricular area.
# [9] = molecular target: T6, human A1 adenosine receptor (Homo sapiens, UniProt P30542); experiment: Cyclic AMP accumulation assay (inhibition of forskolin-stimulated cAMP), CHO cells expressing human A1 adenosine receptor
# T6 sequence (P30542 1-326): T5 sequence (P30542 1-326)
# Description: as §4, §5
# [10] = molecular target: rat A1 receptors (Rattus norvegicus, UniProt P25099); experiment: biochemical
# rat A1 receptors, sequence (P25099 whole entry, the tested form may be a part): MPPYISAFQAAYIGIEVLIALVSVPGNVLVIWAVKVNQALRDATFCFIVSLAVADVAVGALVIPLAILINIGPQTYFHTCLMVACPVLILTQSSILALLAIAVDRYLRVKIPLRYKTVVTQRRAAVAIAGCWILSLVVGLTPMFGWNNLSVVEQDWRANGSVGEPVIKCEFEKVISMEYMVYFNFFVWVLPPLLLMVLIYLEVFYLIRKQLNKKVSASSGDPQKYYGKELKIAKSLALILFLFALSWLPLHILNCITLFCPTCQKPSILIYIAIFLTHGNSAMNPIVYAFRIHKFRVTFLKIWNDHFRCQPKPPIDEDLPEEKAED
# Description: Striatal and forebrain tissues from Wistar rats were homogenized in ice-cold 50 mM Tris-HCl buffer, pH 7.4, using an electric homogenizer. The homogenate was centrifuged at 20,000 g for 10 min at 4° C., and the pellet was washed in fresh buffer. The final pellet was stored at −80° C. until the binding experiments. The protein concentration was measured using the Bradford assay.
# as §2, §3
# [11] = n = 6, 35 global ischemia followed by reperfusion
smiles,measurement,setting,value
"CNC(=O)C12CC1C(n1cnc3c(NCc4cccc(Br)c4)nc(Cl)nc31)C(O)C2O (stereo not drawn) [Compound 17, (1′S,2′R,3′S,4′S,5′S)-4′-[6-(3-Bromobenzylamino)-2-chloro-purin-9-yl]-2′,3′-dihydroxy-bicyclo[3.1.0]hexane-1′-carboxylic acid methyl amide]",% Activation (hA2BAR) at 10 μM,[1],38%
same,Ki,[2],0.38 nM
same,Ki,[3],1300 ± 100 nM
same,Ki,[4],0.76 ± 0.08 nM
same,Ki,[5],270 ± 70 nM
same,% Activation (hA3AR) at 10 μM,[6],100 ± 11%
CNC(=O)[C@@]12C[C@@H]1[C@@H](n1cnc3c(NCC(c4ccccc4)c4ccccc4)nc(Cl)nc31)[C@H](O)[C@@H]2O [Compound 34],agonist efficacy at the A3 adenosine receptor (inhibition of forskolin-stimulated adenylate cyclase),[7]; concentration of 10 μM,agonist
same,% Activation (hA2BAR) at 10 μM,[1],46%
same,affinity at the human A3 adenosine receptor (in words),"[2]; 2-chloro, 5′-N-methylamide substituted compounds",subnanomolar
same,Ki,[2],0.69 ± 0.02 nM
same,Selectivity for the human A3 adenosine receptor in comparison to the A1 adenosine receptor,[2]; ratio of Ki hA1 / hA3,1900 fold
same,Ki,[3],1600 ± 100 nM
same,Ki,[4],10 ± 4 nM
same,Ki,[5],1300 ± 100 nM
same,% Activation (hA3AR) at 10 μM,[6],107 ± 9%
"CNC(=O)C12CC1C(n1cnc3c(NC4CCCC4)nc(Cl)nc31)C(O)C2O (stereo not drawn) [Compound 104, (1′S,2′R,3′S,4′S,5′S) -4′-[6-(cyclopentylamino)-2-chloro-purin-9-yl]-2′,3′-dihydroxy-bicyclo[3.1.0]hexane-1′-carboxylic acid methyl amide]",EC50,[7],2.8 nM
same,% Activation (hA3AR) at 10 μM,"[7]; 10 μM, relative to 10 μM Cl-IB-MECA",101 ± 10%
same,"agonist character at human A3 (concentration response curves, cAMP)",[7]; intact transfected CHO cells,full agonist
same,"recovery of left ventricular developed pressure, +dP/dt, −dP/dt and heart rate (in words)",[8],improved significantly
same,Recovery of +dP/dt,[8]; [11],21.1 ± 4.9 % of baseline prior to ischemia/reperfusion
same,Recovery of HR,[8]; [11],93.8 ± 19.3 % of baseline prior to ischemia/reperfusion
same,Recovery of LVDP,[8]; [11],26.0 ± 4.8 % of baseline prior to ischemia/reperfusion
same,Recovery of −dP/dt,[8]; [11],24.6 ± 7 % of baseline prior to ischemia/reperfusion
same,"% necrosis (infarct size, TTC staining)","[8]; n = 6, area of necrosis normalized to total ventricular area",15±7% and 15.0 ± 6.9%
same,anti-ischemic cardioprotective effect (in words),[8]; perfused until induction of ischemia,potent anti-ischemic cardioprotective effect
same,infarct size (in words),[8]; computer morphometry after TTC staining,significantly reduced
same,EC50,[9],8.2 nM
same,"agonist character at human A1 (concentration response curves, cAMP)",[9]; intact transfected CHO cells,full agonist
same,Ki,[10],17.4 nM
